In patent publication US4873263A, “Rectally absorbable form of L-dopa” (priority 1988, dated 1989):
Where a name gives a salt, the structure may show the parent alone. Read-outs that look alike come from different tables or passages of the source.

How the values were obtained:
[1] = Rat plasma L-dopa and bioavailability after rectal microenema with carbidopa (Example 2); parameters: species or system rats; details: in vivo
Experimental: The experimental conditions of Example 1 were repeated, except that each formulation also contained 0.5 mg carbidopa, a decarboxylase inhibitor which is included to decrease L-dopa metabolism.

[2] = L-dopa bioavailability in Beagle dogs after rectal administration, oral carbidopa pretreatment (Example 3); type: in vivo; details: in words
Experimental: Aqueous formulations (pH 5.5, 0.1% ascorbic acid, 0.1 ml) containing […] L-dopa ethyl ester HCl (equivalent to 50 mg L-dopa) were prepared for administration to Beagle dogs. Each dog received the rectal formulation following a 3-day pretreatment with oral carbidopa (25 mg b.i.d.). Blood samples were collected for 360 minutes and plasma L-dopa levels determined by HPLC.

[3] = rat, in vivo
Experimental: Aqueous microenemas (250 μl) containing either 2.0 mg L-dopa or 2.66 mg L-dopa ethyl ester HCl (equivalent to 2.0 mg L-dopa) were prepared. The solutions were adjusted to pH 5.5 and contained 0.02% ascorbic acid to prevent oxidation. Blood samples were collected following rectal administration to anesthetized rats, and plasma L-dopa determined by HPLC.

[4] = dog, in vivo; cited from earlier work

Percent L-dopa Bioavailability [1]: 62 ± 32.7% | Percent L-dopa Bioavailability [3]: 12 ± 2.4%
SMILES: CCOC(=O)[C@@H](N)Cc1ccc(O)c(O)c1 [L-dopa ethyl ester HCl]
plasma drug levels [2]: significant increase in plasma drug levels | plasma levels of L-dopa [3]: significantly higher plasma levels of L-dopa | absorption by the rectal route in dogs [4]: not significantly absorbed in dogs
